For one test, the target named is EGFR (L858R) (Homo sapiens, UniProt P00533, L858R). The experiment in a line: HotSpot radiometric kinase assay, inhibition of EGFR L858R mutant. It is filed as biochemical. Particulars: 33P ATP, room temperature, 120 m. The gist of the method:
(§1)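 Radiometric filter-binding format: ATP plus 33P-ATP ([…]) was added about 20 min after compound to kinase and substrate in HEPES pH 7.5 buffer with Mg2+, EGTA, Brij35, BSA, vanadate, DTT and 1% DMSO. After 120 min at room temperature, reactions were spotted on P81 paper and washed in phosphoric acid; IC50 values fitted.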

The next test deals with EGFR (L858R/T790M) (Homo sapiens, UniProt P00533, L858R/T790M). The experiment in a line: HotSpot radiometric kinase assay, inhibition of EGFR L858R/T790M mutant. The following applies: 33P ATP, room temperature, 120 m. It is filed as biochemical. The gist of the method:
as §1

The target of another test is EGFR (L858R/T790M/C797S) (Homo sapiens, UniProt P00533, C797S/L858R/T790M). Put plainly: HotSpot radiometric kinase assay, inhibition of EGFR L858R/T790M/C797S mutant. Type of test: biochemical. The following applies: 33P ATP, room temperature, 120 m. The essentials:
as §1

Another test addresses EGFR (D746-750) (Homo sapiens, UniProt P00533, DEL746-750). Put plainly: HotSpot radiometric kinase assay, inhibition of EGFR 746-750 mutant. It is filed as biochemical. Particulars: 33P ATP, room temperature, 120 m. The essentials: as §1
The next test deals with EGFR (D746-750/C797S) (Homo sapiens, UniProt P00533, C797S/DEL746-750). Put plainly: HotSpot radiometric kinase assay, inhibition of EGFR 746-750/C797S mutant. It is filed as biochemical. The following applies: 33P ATP, room temperature, 120 m. The essentials: as §1
Sequence of EGFR (D746-750/C797S) (P00533 with tags, fused parts or gaps DEL746-750/C797S): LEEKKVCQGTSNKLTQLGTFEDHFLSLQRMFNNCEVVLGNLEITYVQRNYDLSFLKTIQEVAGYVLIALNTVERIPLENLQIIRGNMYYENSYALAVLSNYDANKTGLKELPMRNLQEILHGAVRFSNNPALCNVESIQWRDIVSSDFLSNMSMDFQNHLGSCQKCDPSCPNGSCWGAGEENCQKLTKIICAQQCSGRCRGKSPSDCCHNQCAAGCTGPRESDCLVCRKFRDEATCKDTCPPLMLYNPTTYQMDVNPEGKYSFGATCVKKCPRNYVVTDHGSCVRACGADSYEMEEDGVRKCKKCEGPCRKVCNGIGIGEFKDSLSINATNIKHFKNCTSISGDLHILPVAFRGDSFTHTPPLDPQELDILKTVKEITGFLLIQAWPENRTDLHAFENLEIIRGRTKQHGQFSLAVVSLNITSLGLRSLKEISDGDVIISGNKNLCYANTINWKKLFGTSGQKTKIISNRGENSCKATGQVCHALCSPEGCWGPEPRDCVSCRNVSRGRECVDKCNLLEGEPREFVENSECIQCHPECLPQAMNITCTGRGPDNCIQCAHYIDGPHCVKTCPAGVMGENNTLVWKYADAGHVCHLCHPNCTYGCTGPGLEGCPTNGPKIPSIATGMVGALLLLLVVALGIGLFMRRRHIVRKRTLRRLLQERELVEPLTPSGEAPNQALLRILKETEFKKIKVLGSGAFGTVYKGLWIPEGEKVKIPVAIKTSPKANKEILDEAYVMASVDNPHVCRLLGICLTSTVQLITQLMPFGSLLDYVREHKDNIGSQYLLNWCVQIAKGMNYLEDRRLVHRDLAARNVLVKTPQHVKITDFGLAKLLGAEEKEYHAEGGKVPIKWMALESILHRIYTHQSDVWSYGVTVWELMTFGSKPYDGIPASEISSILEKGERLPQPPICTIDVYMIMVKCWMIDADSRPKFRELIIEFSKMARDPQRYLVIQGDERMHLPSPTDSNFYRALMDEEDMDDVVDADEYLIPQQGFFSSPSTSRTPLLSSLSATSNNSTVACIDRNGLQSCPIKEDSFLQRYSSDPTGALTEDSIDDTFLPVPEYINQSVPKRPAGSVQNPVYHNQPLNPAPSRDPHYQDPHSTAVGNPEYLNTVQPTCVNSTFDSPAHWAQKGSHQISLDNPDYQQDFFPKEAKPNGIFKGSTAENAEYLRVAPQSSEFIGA
Another test deals with EGFR (D770_N771insNPG) (Homo sapiens, UniProt P00533, INS770NPG). The experiment in a line: HotSpot radiometric kinase assay, inhibition of EGFR (D770_N771insNPG) mutant. It is filed as biochemical. The following applies: 33P ATP, room temperature, 120 m. The essentials: as §1
Sequence of EGFR (D770_N771insNPG) (P00533 with tags, fused parts or gaps INS770NPG limits assumed): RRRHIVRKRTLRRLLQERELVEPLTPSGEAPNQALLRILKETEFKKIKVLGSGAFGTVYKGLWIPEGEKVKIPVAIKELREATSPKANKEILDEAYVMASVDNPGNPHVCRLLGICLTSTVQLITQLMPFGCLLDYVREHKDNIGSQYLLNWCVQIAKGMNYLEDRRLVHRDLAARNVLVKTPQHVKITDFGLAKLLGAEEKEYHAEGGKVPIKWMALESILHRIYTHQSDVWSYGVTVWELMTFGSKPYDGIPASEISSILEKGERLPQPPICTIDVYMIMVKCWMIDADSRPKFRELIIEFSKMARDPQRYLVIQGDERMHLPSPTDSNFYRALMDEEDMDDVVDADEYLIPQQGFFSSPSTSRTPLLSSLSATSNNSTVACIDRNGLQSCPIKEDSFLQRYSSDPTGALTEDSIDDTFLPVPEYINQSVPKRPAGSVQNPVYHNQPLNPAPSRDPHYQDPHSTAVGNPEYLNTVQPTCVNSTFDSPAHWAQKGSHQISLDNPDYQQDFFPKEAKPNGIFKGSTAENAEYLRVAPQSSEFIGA
The next test has as its target EGFR WT (Homo sapiens, UniProt P00533). Put plainly: HotSpot radiometric kinase assay, inhibition of EGFR WT. It is filed as biochemical. Particulars: 33P ATP, room temperature, 120 m. The gist of the method: as §1
Test [1] concerns the target T1, pEGFR, PC-9 cells (d746-750 EGFR) (Homo sapiens, UniProt P00533, DEL746-750).
T1 construct: pEGFR (Tyr1068) TR-FRET
The experiment in a line: Cellular EGFR phosphorylation assay (LANCE Ultra TR-FRET) in PC-9 cells. It is filed as cell-based. Particulars: 4 hours at 37° C., read-out: PC-9 pEGFR IC50. The gist of the method:
(§2)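 IC50 values come from TR-FRET detection of EGFR phosphorylated at Tyr1068 in whole-cell lysates. Compound exposure lasts 4 h at 37 °C across nine 3-fold concentrations, and the wildtype-amplified A431 line receives 40 ng/mL EGF during the last 10 minutes.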
Background: TR-FRET usually uses a lanthanide donor and a delayed reading to cut background.

Test [2] deals with T2, pEGFR, NCI-H1975 cells (L858R/T790M EGFR) (Homo sapiens, UniProt P00533, L858R/T790M).
T2 construct: pEGFR (Tyr1068) TR-FRET
The experiment in a line: Cellular EGFR phosphorylation assay (LANCE Ultra TR-FRET) in NCI-H1975 cells. Type of test: cell-based. The following applies: 4 hours at 37° C., read-out: H1975 pEGFR IC50. The essentials:
as §2

The target in test [3] is T3, pEGFR, A431 cells (wildtype EGFR) (Homo sapiens, UniProt P00533).
T3 construct: pEGFR (Tyr1068) TR-FRET
Put plainly: Cellular EGFR phosphorylation assay (LANCE Ultra TR-FRET) in A431 cells. Type of test: cell-based. Particulars: 4 hours at 37° C., 40 ng/mL EGF for the final 10 minutes, read-out: A431 pEGFR IC50. The essentials:
as §2

In the next test the test system is PC-9 cells. Put plainly: 5-Day CellTiter Glo (CTG) cell proliferation assay, PC-9. It is filed as cell-based. Particulars: Homo sapiens; PC-9 cells (d746-750 EGFR), 5-day CTG proliferation, 120 hours; read-out: PC-9 IC50. The essentials:
(§3)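 Proliferation of EGFR-driven NSCLC cells was scored as CellTiter-Glo 2.0 luminescence after a 5-day (120 h) incubation with compounds in 9 doses. IC50 values came from the dose-response curves.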

The subject of another test is NCI-H1975 cells. Put plainly: 5-Day CellTiter Glo (CTG) cell proliferation assay, NCI-H1975. It is filed as cell-based. Particulars: Homo sapiens; NCI-H1975 cells (L858R/T790M EGFR), 5-day CTG proliferation, 120 hours; read-out: H1975 IC50. The essentials:
as §3
For orientation: In ATP-based viability assays light output follows the ATP content of the culture.

The test system of a further test is HCC827 cells. The experiment in a line: 5-Day CellTiter Glo (CTG) cell proliferation assay, HCC827. Type of test: cell-based. The following applies: Homo sapiens; HCC827 cells (d746-750 EGFR), 5-day CTG proliferation, 120 hours; read-out: HCC827 IC50. The gist of the method:
as §3

For test [4], the system named is BaF3 cells with engineered EGFR L858R/T790M/C797S. Put plainly: 3-Day CellTiter Glo (CTG) cell proliferation assay, BaF3 EGFR L858R/T790M/C797S. Type of test: cell-based. The following applies: Mus musculus, 3-day CTG proliferation, 72 hours. The gist of the method:
(§4)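 Luminescent ATP read-out (CellTiter-Glo 2.0) after 72 h compound exposure gives IC50 values. BaF3 transgenic cells, one thousand per well, received a nine-dose series and were kept at 37 °C under 5% CO2.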

Test [5] relates to BaF3 cells with engineered EGFR L858R/C797S. Put plainly: 3-Day CellTiter Glo (CTG) cell proliferation assay, BaF3 EGFR L858R/C797S. Type of test: cell-based. The following applies: Mus musculus, 3-day CTG proliferation, 72 hours. The gist of the method: as §4
Test [6] has as its system BaF3 cells with engineered EGFR d746-750/T790M. Put plainly: 3-Day CellTiter Glo (CTG) cell proliferation assay, BaF3 EGFR d746-750/T790M. It is filed as cell-based. Particulars: Mus musculus; BaF3 EGFR d746-750/T790M cells, 3-day CTG proliferation, 72 hours. The gist of the method: as §4

Sequence of EGFR (L858R) (P00533 25-1210 L858R): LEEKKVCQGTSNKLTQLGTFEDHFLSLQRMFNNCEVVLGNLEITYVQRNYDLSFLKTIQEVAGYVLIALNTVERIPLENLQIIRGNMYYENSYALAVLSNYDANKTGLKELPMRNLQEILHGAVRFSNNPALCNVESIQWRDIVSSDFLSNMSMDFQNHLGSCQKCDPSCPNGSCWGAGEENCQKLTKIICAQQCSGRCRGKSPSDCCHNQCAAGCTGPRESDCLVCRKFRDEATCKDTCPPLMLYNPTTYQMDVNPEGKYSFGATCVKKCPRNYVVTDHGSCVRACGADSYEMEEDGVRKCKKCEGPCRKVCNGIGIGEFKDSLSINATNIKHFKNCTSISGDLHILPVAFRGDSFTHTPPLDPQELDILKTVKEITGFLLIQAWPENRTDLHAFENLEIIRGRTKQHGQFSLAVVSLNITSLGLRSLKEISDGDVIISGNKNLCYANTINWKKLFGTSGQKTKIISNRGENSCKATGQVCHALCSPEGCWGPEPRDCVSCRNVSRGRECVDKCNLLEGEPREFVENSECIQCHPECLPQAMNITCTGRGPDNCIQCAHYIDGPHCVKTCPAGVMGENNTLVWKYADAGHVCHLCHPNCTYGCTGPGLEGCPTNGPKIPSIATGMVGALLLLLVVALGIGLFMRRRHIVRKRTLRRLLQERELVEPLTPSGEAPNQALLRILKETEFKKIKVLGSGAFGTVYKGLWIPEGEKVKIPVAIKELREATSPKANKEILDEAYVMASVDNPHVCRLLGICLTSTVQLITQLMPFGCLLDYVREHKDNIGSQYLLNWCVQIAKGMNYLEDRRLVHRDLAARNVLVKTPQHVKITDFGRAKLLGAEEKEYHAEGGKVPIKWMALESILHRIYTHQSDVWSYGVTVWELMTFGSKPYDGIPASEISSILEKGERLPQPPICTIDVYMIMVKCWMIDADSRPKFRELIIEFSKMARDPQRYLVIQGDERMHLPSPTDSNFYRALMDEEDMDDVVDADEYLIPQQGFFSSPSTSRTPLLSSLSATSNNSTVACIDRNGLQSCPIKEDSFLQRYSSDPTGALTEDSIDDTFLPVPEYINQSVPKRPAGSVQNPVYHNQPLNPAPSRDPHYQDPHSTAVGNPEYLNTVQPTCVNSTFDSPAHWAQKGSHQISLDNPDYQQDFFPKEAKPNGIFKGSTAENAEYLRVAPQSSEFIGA
Sequence of EGFR (D746-750) (P00533 with tags, fused parts or gaps DEL746-750): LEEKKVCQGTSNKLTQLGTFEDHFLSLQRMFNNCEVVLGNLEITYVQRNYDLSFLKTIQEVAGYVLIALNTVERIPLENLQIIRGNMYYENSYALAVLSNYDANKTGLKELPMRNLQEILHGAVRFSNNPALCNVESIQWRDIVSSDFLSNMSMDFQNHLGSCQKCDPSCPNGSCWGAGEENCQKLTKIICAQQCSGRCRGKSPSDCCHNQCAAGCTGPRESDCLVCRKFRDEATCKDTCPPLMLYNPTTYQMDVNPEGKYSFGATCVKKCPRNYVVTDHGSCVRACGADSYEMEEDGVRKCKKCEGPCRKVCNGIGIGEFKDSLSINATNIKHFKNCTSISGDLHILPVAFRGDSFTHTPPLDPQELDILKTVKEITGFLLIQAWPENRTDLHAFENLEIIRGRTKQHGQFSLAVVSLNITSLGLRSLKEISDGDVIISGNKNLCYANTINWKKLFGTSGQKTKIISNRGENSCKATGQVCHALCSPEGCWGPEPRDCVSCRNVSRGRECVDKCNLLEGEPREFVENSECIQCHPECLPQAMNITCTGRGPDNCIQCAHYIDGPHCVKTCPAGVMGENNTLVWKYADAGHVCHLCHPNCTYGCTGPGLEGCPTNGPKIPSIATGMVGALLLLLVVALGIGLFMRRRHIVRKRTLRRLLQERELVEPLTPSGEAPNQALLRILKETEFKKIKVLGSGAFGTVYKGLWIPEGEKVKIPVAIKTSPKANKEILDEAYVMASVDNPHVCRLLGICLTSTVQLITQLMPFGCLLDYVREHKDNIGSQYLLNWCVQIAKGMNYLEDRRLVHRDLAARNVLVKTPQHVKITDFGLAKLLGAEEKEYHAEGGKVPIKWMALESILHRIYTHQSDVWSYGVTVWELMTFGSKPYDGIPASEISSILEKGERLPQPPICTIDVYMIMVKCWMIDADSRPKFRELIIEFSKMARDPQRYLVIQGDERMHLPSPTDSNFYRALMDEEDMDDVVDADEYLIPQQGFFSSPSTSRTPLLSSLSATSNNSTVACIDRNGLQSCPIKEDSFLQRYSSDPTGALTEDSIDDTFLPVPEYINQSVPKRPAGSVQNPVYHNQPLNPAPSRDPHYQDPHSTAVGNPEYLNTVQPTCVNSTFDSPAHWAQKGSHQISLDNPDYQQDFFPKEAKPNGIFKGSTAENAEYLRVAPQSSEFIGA

For the compound `CCOc1nn([C@@H](C)CO)c2c1/C=C/c1n[nH]c3c(C)nc(cc13)-c1c(C)nn(C)c1O[C@@H](C)CN(C)C2` [Ex. 54, (2S)-2-[(10S,17E)-16-ethoxy-6,8,10,12,20-pentamethyl-2,8,10,11,12,13-hexahydro-14H-5,3-(azenometheno)tripyrazolo[3,4-f:3′,4′-j:4″,3″-n][1,4]oxazacyclopentadecin-14-yl]propan-1-ol], the concentration for half-maximal inhibition (IC50) (as a rule, the midpoint of a concentration-inhibition curve) on EGFR (L858R) turned out to be 0.32 nM; at EGFR (L858R/T790M), 1.04 nM; against EGFR (L858R/T790M/C797S), 0.65 nM; on EGFR (D746-750), 0.67 nM; at EGFR (D746-750/C797S), 0.48 nM; at EGFR (D770_N771insNPG), 0.55 nM. The half-maximal inhibitory concentration (IC50) turned out to be 0.38 nM at EGFR WT; 0.67 nM in test [1]; 0.94 nM in test [2]; 10.7 nM in test [3]; 0.78 nM in the test on PC-9 cells; 0.99 nM with NCI-H1975 cells. The half-inhibitory concentration (IC50) in the test with HCC827 cells was found to be 0.41 nM; in test [4] it was 0.55 nM; in test [5], 0.06 nM; in test [6], 0.55 nM.
With `CCOc1nn([C@@H](C)CO)c2c1/C=C/c1n[nH]c3cnc(cc13)-c1c(C)nn(C)c1O[C@@H](C)CN(C1CC1)C2` [Ex. 110, (2S)-2-[(10S,17E)-12-cyclopropyl-16-ethoxy-6,8,10-trimethyl-2,8,10,11,12,13-hexahydro-14H-5,3-(azenometheno)tripyrazolo[3,4-f:3′,4′-j:4″,3″-n][1,4]oxazacyclopentadecin-14-yl]propan-1-ol], the IC50 against EGFR (L858R) was 0.36 nM; against EGFR (L858R/T790M) it was 0.5 nM; against EGFR (L858R/T790M/C797S) it was 0.25 nM; on EGFR (D746-750), 0.46 nM; at EGFR (D746-750/C797S), 0.56 nM; at EGFR (D770_N771insNPG) it was 0.18 nM. The IC50 stood at 0.09 nM at EGFR WT; 1.12 nM in test [1]; 1.76 nM in test [2]; 1.42 nM in [3]; 0.47 nM with PC-9 cells; 1.07 nM with NCI-H1975 cells. The IC50 in the test on HCC827 cells was determined as 0.31 nM; in test [4], 0.71 nM; in [5], 0.07 nM; in test [6], 0.61 nM.
For `CCOc1nn([C@@H](C)CO)c2c1/C=C/c1n[nH]c3c(C)nc(cc13)-c1c(C)nn(C)c1O[C@H](C)[C@H]1CCCN1C2` [Ex. 180, (2S)-2-[(8aR,9R,19E)-1-ethoxy-9,11,13,21-tetramethyl-7,8,8a,9,11,17-hexahydro-6H-14,16-(azenometheno)tripyrazolo[3,4-f:3′,4′-j:4″,3″-n]pyrrolo[2,1-c][1,4]oxazacyclopentadecin-3(4H)-yl]propan-1-ol], the IC50 against EGFR (L858R) amounted to 0.15 nM; at EGFR (L858R/T790M) it was 0.16 nM; on EGFR (L858R/T790M/C797S), 0.13 nM; at EGFR (D746-750) it was 0.21 nM; on EGFR (D746-750/C797S), 0.21 nM; against EGFR (D770_N771insNPG), 0.1 nM. Besides, the concentration for half-maximal inhibition (IC50) at EGFR WT amounted to 0.05 nM; in [1], 0.64 nM; in test [2], 1.54 nM; in test [3] it was 6.08 nM; with PC-9 cells, 0.7 nM; with NCI-H1975 cells, 0.95 nM. Besides, the IC50 with HCC827 cells came to 0.34 nM; in test [4] it was 0.69 nM; in test [5] it was 0.06 nM; in [6] it was 0.57 nM.
